From patent US7932254B2, “Pyrrolopyrazine kinase inhibitors” (Roche Palo Alto, priority 2008, dated 2011)
pIC50: −log10 of the molar value. Values belong to the compound of their own block, whether it stands above or below them.

Columns and labels:
[1] = molecular target: JAK3 (recombinant human kinase domain) (Homo sapiens, UniProt P52333); test: Determination of IC50 of Janus Kinase (JAK) inhibition, radioactive end-point 33P-ATP assay, JAK3; format: biochemical; conditions: ATP 1.5 uM, peptide 50 uM, 20 minutes, room temperature, read-out: IC50 h-jak3-sf21-c
Chain of JAK3 (recombinant human kinase domain) (P52333 822-1111 limits assumed): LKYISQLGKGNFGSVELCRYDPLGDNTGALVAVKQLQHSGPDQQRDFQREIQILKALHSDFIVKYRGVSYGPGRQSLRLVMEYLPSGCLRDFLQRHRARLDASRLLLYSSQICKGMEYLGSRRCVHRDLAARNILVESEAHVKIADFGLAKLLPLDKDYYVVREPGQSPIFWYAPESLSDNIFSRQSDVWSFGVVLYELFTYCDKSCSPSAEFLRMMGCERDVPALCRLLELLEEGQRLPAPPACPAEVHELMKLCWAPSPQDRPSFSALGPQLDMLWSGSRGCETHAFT
Description: Determination of IC50 of Janus Kinase (JAK) Inhibition: […]

Structure (SMILES): CN1CCOc2cc(-c3cnc4[nH]cc(C(=O)C(C)(C)C)c4n3)ccc21 [Compound I-3, 2,2-Dimethyl-1-[2-(4-methyl-3,4-dihydro-2H-benzo[1,4]oxazin-7-yl)-5H-pyrrolo[2,3-b]pyrazin-7-yl]-propan-1-one]
melting point: 233 to 234 °C

Structure (SMILES): CC(C)(C)C(=O)c1c[nH]c2ncc(-c3ccc4c(c3)NC(=O)C(C)(C)O4)nc12 [Compound I-7, 6-[7-(2,2-Dimethyl-propionyl)-5H-pyrrolo[2,3-b]pyrazin-2-yl]-2,2-dimethyl-4H-benzo[1,4]oxazin-3-one]
melting point: > 300 °C

Structure (SMILES): CN1CCOc2ccc(-c3cnc4[nH]cc(C(=O)C(C)(C)C)c4n3)cc21 [Compound I-8, 2,2-Dimethyl-1-[2-(4-methyl-3,4-dihydro-2H-benzo[1,4]oxazin-6-yl)-5H-pyrrolo[2,3-b]pyrazin-7-yl]-propan-1-one]
melting point: 255 to 265 °C

Structure (SMILES): CC(C)(C)C(=O)c1c[nH]c2ncc(-c3ccc4c(c3)NC(=O)CO4)nc12 [Compound I-9, 6-[7-(2,2-Dimethyl-propionyl)-5H-pyrrolo[2,3-b]pyrazin-2-yl]-4H-benzo[1,4]oxazin-3-one]
melting point: > 350 °C

Structure (SMILES): CN1C(=O)COc2ccc(-c3cnc4[nH]cc(C(=O)C(C)(C)C)c4n3)cc21 [Compound I-10, 6-[7-(2,2-Dimethyl-propionyl)-5H-pyrrolo[2,3-b]pyrazin-2-yl]-4-methyl-4H-benzo[1,4]oxazin-3-one]
melting point: 277 to 278 °C

Structure (SMILES): CC(C)(C)C(=O)c1c[nH]c2ncc(-c3cc(NS(=O)(=O)c4ccc(N)cc4)c4cc[nH]c4c3)nc12 [Compound I-19, 4-Amino-N-{6-[7-(2,2-dimethyl-propionyl)-5H-pyrrolo[2,3-b]pyrazin-2-yl]-1H-indol-4-yl}-benzenesulfonamide]
melting point: 285 to 292 °C

Structure (SMILES): CC1(C(=O)c2c[nH]c3ncc(-c4ccc5c(c4)NC(=O)C(C)(C)O5)nc23)CCCCC1 [Compound I-21, 2,2-Dimethyl-6-[7-(1-methyl-cyclohexanecarbonyl)-5H-pyrrolo[2,3-b]pyrazin-2-yl]-4H-benzo[1,4]oxazin-3-one]
melting point: > 300 °C

Structure (SMILES): CC(C)(C)C(=O)c1c[nH]c2ncc(-c3ccc4c(c3)SCC(=O)N4)nc12 [Compound I-22, 7-[7-(2,2-Dimethyl-propionyl)-5H-pyrrolo[2,3-b]pyrazin-2-yl]-4H-benzo[1,4]thiazin-3-one]
melting point: > 300 °C

Structure (SMILES): CC(C)(C)C(=O)c1c[nH]c2ncc(-c3cc(NS(C)(=O)=O)c4cc[nH]c4c3)nc12 [Compound I-26, N-{6-[7-(2,2-Dimethyl-propionyl)-5H-pyrrolo[2,3-b]pyrazin-2-yl]-1H-indol-4-yl}-methanesulfonamide]
melting point: > 300 °C

Structure (SMILES): CC(C)(C)C(=O)c1c[nH]c2ncc(-c3cc(NS(=O)(=O)c4ccccc4)c4cc[nH]c4c3)nc12 [Compound I-27, N-{6-[7-(2,2-Dimethyl-propionyl)-5H-pyrrolo[2,3-b]pyrazin-2-yl]-1H-indol-4-yl}-benzenesulfonamide]
melting point: 275 to 285 °C

Structure (SMILES): CC(C)(C)C(=O)c1c[nH]c2ncc(-c3cc(NS(=O)(=O)c4ccc(Cl)cc4)c4cc[nH]c4c3)nc12 [Compound I-33, 4-Chloro-N-{6-[7-(2,2-dimethyl-propionyl)-5H-pyrrolo[2,3-b]pyrazin-2-yl]-1H-indol-4-yl}-benzenesulfonamide]
melting point: 264 to 266 °C

Structure (SMILES): CC(C)(C)C(=O)c1c[nH]c2ncc(-c3cc(NS(=O)(=O)c4ccc(F)cc4)c4cc[nH]c4c3)nc12 [Compound I-34, N-{6-[7-(2,2-Dimethyl-propionyl)-5H-pyrrolo[2,3-b]pyrazin-2-yl]-1H-indol-4-yl}-4-fluoro-benzenesulfonamide]
melting point: 295 to 297 °C

Structure (SMILES): COc1ccc(S(=O)(=O)Nc2cc(-c3cnc4[nH]cc(C(=O)C(C)(C)C)c4n3)cc3[nH]ccc23)cc1 [Compound I-35, N-{6-[7-(2,2-Dimethyl-propionyl)-5H-pyrrolo[2,3-b]pyrazin-2-yl]-1H-indol-4-yl}-4-methoxy-benzenesulfonamide]
melting point: 231 to 233 °C

Structure (SMILES): CC(C)(C)C(=O)c1c[nH]c2ncc(-c3cc(NS(=O)(=O)c4cccnc4)c4cc[nH]c4c3)nc12 [Compound I-37, Pyridine-3-sulfonic acid {6-[7-(2,2-dimethyl-propionyl)-5H-pyrrolo[2,3-b]pyrazin-2-yl]-1H-indol-4-yl}-amide]
melting point: 305 to 307 °C

Structure (SMILES): CN1CCOc2cc(-c3cnc4[nH]cc(C(=O)C5(C)CCCCC5)c4n3)ccc21 [Compound I-39, (1-Methyl-cyclohexyl)-[2-(4-methyl-3,4-dihydro-2H-benzo[1,4]oxazin-7-yl)-5H-pyrrolo[2,3-b]pyrazin-7-yl]-methanone]
melting point: 243 to 244 °C

Structure (SMILES): CC(C)(C)C(=O)c1c[nH]c2ncc(-c3ccc4c(ccn4Cc4ccccn4)c3)nc12 [Compound I-46, 2,2-Dimethyl-1-[2-(1-pyridin-2-ylmethyl-1H-indol-5-yl)-5H-pyrrolo[2,3-b]pyrazin-7-yl]-propan-1-one]
melting point: 194 to 196 °C

Structure (SMILES): CC(C)(C)C(=O)c1c[nH]c2ncc(-c3ccc4c(ccn4Cc4cccnc4)c3)nc12 [Compound I-48, 2,2-Dimethyl-1-[2-(1-pyridin-3-ylmethyl-1H-indol-5-yl)-5H-pyrrolo[2,3-b]pyrazin-7-yl]-propan-1-one]
melting point: 170 to 171 °C

Next, values leading:

melting point: 241 to 243 °C
pIC50 [1]: 6.82
Structure (SMILES): CC(C)(C)C(=O)c1c[nH]c2ncc(-c3ccc4c(ccn4Cc4ccncc4)c3)nc12 [Compound I-49, 2,2-Dimethyl-1-[2-(1-pyridin-4-ylmethyl-1H-indol-5-yl)-5H-pyrrolo[2,3-b]pyrazin-7-yl]-propan-1-one]

melting point: 263 to 265 °C
pIC50 [1]: 6.81
Structure (SMILES): CN1CC=C(c2c[nH]c3ccc(-c4cnc5[nH]cc(C(=O)C(C)(C)C)c5n4)cc23)CC1 [Compound I-50, 2,2-Dimethyl-1-{2-[3-(1-methyl-1,2,3,6-tetrahydro-pyridin-4-yl)-1H-indol-5-yl]-5H-pyrrolo[2,3-b]pyrazin-7-yl}-propan-1-one]

pIC50 [1]: 7.49
Structure (SMILES): CC1(C(=O)c2c[nH]c3ncc(-c4ccc5[nH]ccc5c4)nc23)CCCCC1 [Compound I-52, [2-(1H-Indol-5-yl)-5H-pyrrolo[2,3-b]pyrazin-7-yl]-(1-methyl-cyclohexyl)-methanone]

pIC50 [1]: 6.80
Structure (SMILES): CN(c1cc(-c2cnc3[nH]cc(C(=O)C(C)(C)C)c3n2)cc2[nH]ccc12)S(=O)(=O)c1ccc(N)cc1 [Compound I-54, 4-Amino-N-{6-[7-(2,2-dimethyl-propionyl)-5H-pyrrolo[2,3-b]pyrazin-2-yl]-1H-indol-4-yl}-N-methyl-benzenesulfonamide]

melting point: 260 to 263 °C
Structure (SMILES): CC(C)(C)C(=O)c1c[nH]c2ncc(-c3cc(N4CCCC4)ccn3)nc12 [Example 6, 2,2-Dimethyl-1-[2-(4-pyrrolidin-1-yl-pyridin-2-yl)-5H-pyrrolo[2,3-b]pyrazin-7-yl]-propan-1-one]

melting point: 276 to 278 °C
Structure (SMILES): CC(C)(C)C(=O)c1c[nH]c2ncc(-c3ccccn3)nc12 [Example 8, 2,2-Dimethyl-1-(2-pyridin-2-yl-5H-pyrrolo[2,3-b]pyrazin-7-yl)-propan-1-one]

melting point: 199 to 200.1 °C
Structure (SMILES): CCc1cccc(-c2cnc3[nH]cc(C(=O)C(C)(C)C)c3n2)c1 [Example 9, 1-[2-(3-Ethyl-phenyl)-5H-pyrrolo[2,3-b]pyrazin-7-yl]-2,2-dimethyl-propan-1-one]
